Test results published in publication PMC10754118, “Lipophilic Nucleoside Triphosphate Prodrugs of Anti‐HIV Active Nucleoside Analogs as Potential Antiviral Compounds” (Advanced Science, 2023).
Read-outs that look alike come from different tables or passages of the source.

How the values were obtained:
HIV‐2 [ROD)] = experiment: Anti-HIV activity, HIV-2 in thymidine kinase-deficient CEM/TK^− cells; type: cell-based
Method: (§1) Part 9. Anti-HIV activity assay.
(§2) The produce was used as previously reported. 5 Inhibition of HIV-1(IIIB)- and HIV-2(ROD)-induced cytopathogenicity in wild-type CEM/0 and thymidine kinase-deficient CEM/TK– cell cultures was measured in […]
(§3) containing appropriate dilutions of the test compounds. After 4−5 days of incubation at 37 °C in a CO2-controlled humidified atmosphere, CEM giant (syncytium) cell formation was examined microscopically. The […]
(§4) giant cell formation by 50%.
(§5) Part 10. Primer-extension assays. […]

HIV‐1 [HE] = experiment: Anti-HIV activity, HIV-1 in wild-type CEM/0 cells; type: cell-based; settings: Human immunodeficiency virus 1, CCRF-CEM, read-out: Antiviral activity CEM/0 HIV‐1 [HE] EC50
in vitro [1] = settings: human
Method: All TriPPPro‐compounds 10 and 20, as well as their parent nucleosides and the corresponding NTPs, were evaluated for their antiviral activity (expressed as EC50 values) against HIV‐1 (wild‐type CEM/0 cells) and HIV‐2 (wild‐type CEM/0 cells and thymidine kinase‐deficient (CEM/TK^−) cells) with concomitant determination of cytotoxicity in the same cell line (Table 3 ).

[2] = Chemical hydrolysis in phosphate buffer saline (PBS, pH 7.3); type: physicochemical; settings: PBS pH 7.3, 37 °C, read-out: PBS pH 7.3 t 1/2 (converted)
Method: Part 4. Chemical Hydrolysis of TriPPPro-compounds 10 and 20.
Second prepare 1.9 mM hydrolysis […]
Then, aliquots of 50 µL human

HIV‐2 [ROD] = experiment: Anti-HIV activity, HIV-2 in wild-type CEM/0 cells; type: cell-based; settings: Human immunodeficiency virus 2, CCRF-CEM, read-out: Antiviral activity CEM/0 HIV‐2 [ROD] EC50
Method: as §1, §2, §3, §4, §5

in vitro [3] = settings: human, plasma
Method: First prepare 50 mM solutions of TriPPPro-compounds 10 and 20 in DMSO. […]
First prepare 3.0 mM hydrolysis solutions of Tri PPPro-compounds 10 and 20 in DMSO and H2O: 21 µL stock solution (50 mM in DMSO) and 154 µL DMSO, and 175 µL Milli-Q water. Three-twelve different samples (20 […]
The calculation of t1/2 was obtained using Origin again.
Part 7. Hydrolysis of TriPPPro-compounds 10 and 20 in human plasma.
µL 3.0 mM hydrolysis solutions) were prepared in 2 mL Eppendorf® vials. Then, aliquots of 50 µL human Plasma (Heparin or Citrate) were added to these samples and the reaction was started. The samples were […]
incubated at 37 °C in a thermomixer for different time periods. The reaction was stopped by addition of 150 µL MeOH and kept on ice for 5 min. After centrifugation at 14,000 rpm for 22 min, the supernatants were filtered (Chromafil RC-20/15 MS, 0.2 μm) and stored in liquid nitrogen. When testing, aliquots of 25 0r 30 µL (injection volume) were analyzed by analytical HPLC (HPLC Method). The calculation of t1/2 was obtained using Origin […]
Part 8. Preparation of cell extracts and human plasma. […]

[4] = Human immunodeficiency virus 2, CEM-TK(-), thymidine kinase-deficient CEM/TK^− cells, mean ±SD n = 2–3; read-out: Antiviral activity CEM/TK^− HIV‐2 [ROD)] EC50
[5] = wild-type CEM/0 cells, mean ±SD n = 2–3
[6] = CEM/0 cells (wild-type CD4+ T-cells)
[7] = Human immunodeficiency virus 2, CEM-TK(-), read-out: Antiviral activity CEM/TK^− HIV‐2 [ROD)] EC50

SMILES	EC50 (HIV‐2 [ROD)]; [4])	EC50 (HIV‐1 [HE]; [5])	half-life at 1.9 mM [2]	EC50 (HIV‐2 [ROD]; [5])	half-life at 0.86 mM (in vitro [3]; Plasma (Citrate) t 1/2)	half-life at 0.86 mM (in vitro [3]; Plasma (Heparin) t 1/2)	half-life at 0.86 mM (in vitro [3]; t 1/2 in human plasma (over heparin and citrate plasma))	CC50 (in vitro [1]; [6])	EC50 (HIV‐2 [ROD)]; [7])	EC50 (HIV‐1 [HE])	EC50 (HIV‐2 [ROD])	CC50 (in vitro [1])
CCCCCCCCCCCCCCCCCCP(=O)(OCCCC)OP(=O)(O)OP(=O)(O)OC[C@@H]1O[C@H](n2cc(F)c(N)nc2=O)CS1 (some centres unmarked) [10cx]			> 83.3 days					46000 nM	11 nM	49 ± 45 nM	94 ± 23 nM	
CCCCCCCCCCCCCCCCCCP(=O)(OCCCC)OP(=O)(O)OP(=O)(O)OC[C@H]1O[C@@H](n2cc(Cl)c(=O)[nH]c2=O)C[C@@H]1F (some centres unmarked) [10dx]			> 83.3 days					54400 ± 15900 nM	3210 ± 1120 nM	2590 ± 710 nM	2230 ± 1200 nM	
Nc1nc(NC2CC2)c2ncn([C@H]3C=C[C@@H](CO)C3)c2n1 [1h (ABC), abacavir, reference compound]								> 100000 nM				
Cc1cn([C@H]2C[C@H](N=[N+]=[N-])[C@@H](COP(=O)(O)OP(=O)(O)O)O2)c(=O)[nH]c1=O [AZTDP, reference compound]					6.4 h	2.8 h	2.8 to 6.4 h					
CCCCCCCCCCCCCCCCCCP(=O)(OCCCC)OP(=O)(O)OP(=O)(O)OC[C@H]1O[C@@H](n2cc(C)c(=O)[nH]c2=O)C[C@@H]1F (some centres unmarked) [10ex]			6.17 days					43600 nM	1010 ± 1140 nM	390 ± 130 nM	520 ± 670 nM	
Cc1cn([C@H]2C[C@H](N=[N+]=[N-])[C@@H](CO[P@](=O)(O)O[P@](=O)(O)OP(=O)(O)O)O2)c(=O)[nH]c1=O [AZTTP, reference compound]								> 100000 nM	57900 ± 10900 nM	6.9 ± 8.7 nM	5.5 ± 4 nM	
Nc1nc(=O)n([C@@H]2CS[C@H](CO)O2)cc1F [1c (FTC), FTC, reference compound]	10 ± 10 nM	8.6 ± 5.7 nM		20 ± 1 nM				> 100000 nM				
O=c1[nH]c(=O)n([C@H]2C[C@H](O)[C@@H](CO)O2)cc1/C=C/Br [1g (BVDU), BVDU, reference compound]	> 250000 nM	> 250000 nM		> 250000 nM								207000 ± 60000 nM

Now from value to molecule, other results behind:

EC50 (HIV‐2 [ROD)]; [4])	EC50 (HIV‐1 [HE]; [5])	half-life at 1.9 mM [2]	EC50 (HIV‐2 [ROD]; [5])	half-life at 0.86 mM (in vitro [3]; Plasma (Citrate) t 1/2)	half-life at 0.86 mM (in vitro [3]; Plasma (Heparin) t 1/2)	half-life at 0.86 mM (in vitro [3]; t 1/2 in human plasma (over heparin and citrate plasma))	SMILES	CC50 (in vitro [1]; [6])	EC50 (HIV‐2 [ROD)]; [7])	EC50 (HIV‐1 [HE])	EC50 (HIV‐2 [ROD])	CC50 (in vitro [1])
11200 ± 4990 nM	7580 ± 2200 nM	> 62.5 days	8010 ± 2810 nM				CCCCCCCCCCCCCCCCCCP(=O)(OCc1ccc(OC(=O)CCCC)cc1)OP(=O)(O)OP(=O)(O)OC[C@H]1O[C@@H](n2cc(/C=C/Br)c(=O)[nH]c2=O)C[C@@H]1O (some centres unmarked) [10gz]	43900 ± 8300 nM				
26 ± 35 nM	100 ± 30 nM	7.54 days	180 ± 110 nM				CCCCCCCCCCCCCCCCCCOP(=O)(OCC(CC)CCCC)OP(=O)(O)OP(=O)(O)OC[C@@H]1C=C[C@H](n2cnc3c(NC4CC4)nc(N)nc32)C1 (some centres unmarked) [10hw]	> 100000 nM				
360 ± 240 nM	26 ± 28 nM	15 days	14 ± 16 nM				CCCCCCCCCCCCCCCCCCOP(=O)(OCc1ccc(OC(=O)CCCC)cc1)OP(=O)(O)OP(=O)(O)OC[C@H]1O[C@@H](n2ccc(=O)[nH]c2=O)C[C@@H]1F (some centres unmarked) [10fy]	43300 ± 5100 nM				
6100 ± 3000 nM	160 ± 190 nM	> 83.3 days	54 ± 28 nM				CCCCCCCCCCCCCCCCCCOP(=O)(OCC(CC)CCCC)OP(=O)(O)OP(=O)(O)OC[C@H]1O[C@@H](n2cc(C)c(=O)[nH]c2=O)C[C@@H]1N=[N+]=[N-] (some centres unmarked) [10bw]	45600 nM				
110 ± 140 nM	370 ± 470 nM	> 83.3 days	140 ± 62 nM				CCCCCCCCCCCCCCCCCCOP(=O)(OCC(CC)CCCC)OP(=O)(O)OP(=O)(O)OC[C@H]1O[C@@H](n2ccc(=O)[nH]c2=O)C[C@@H]1F (some centres unmarked) [10fw]	63500 ± 27200 nM				
